ChEMBL document CHEMBL4665792 (J Med Chem, 2020)

Legend:
Assay type in all cases: functional, cell-based
[1] = system: HepG2; assay: Antiproliferative activity against human HepG2 cells assessed as reduction in cell viability incubated for 24 hrs by MTT assay; conditions: HepG2, 24 h
[2] = system: HCT-116; assay: Antiproliferative activity against human HCT-116 cells assessed as reduction in cell viability incubated for 24 hrs by MTT assay; conditions: HCT-116, 24 h
[3] = system: HT-29; assay: Antiproliferative activity against human HT-29 cells assessed as reduction in cell viability incubated for 24 hrs by MTT assay; conditions: HT-29, 24 h
[4] = system: MCF7; assay: Antiproliferative activity against human MCF7 cells assessed as reduction in cell viability incubated for 24 hrs by MTT assay; conditions: MCF7, 24 h

Row | IC50 [1] | IC50 [2] | IC50 [3] | IC50 [4] | SMILES
1 | 2810 nM | 1950 nM | 1790 nM | 4330 nM | COC(=O)O[C@H]1C=CC(=O)[C@]2(C)[C@H]3CC[C@]4(C)C([C@H](C)[C@H]5CC(C)=C(C)C(=O)O5)=C[C@H](OC(C)=O)[C@@]4(O)[C@@H]3C[C@H]3O[C@]132
2 | 700 nM | 1230 nM | 770 nM | 1710 nM | CC(=O)O[C@H]1C=C([C@H](C)[C@H]2CC(C)=C(C)C(=O)O2)[C@@]2(C)CC[C@H]3[C@@H](C[C@H]4O[C@]45[C@@H](OC(=O)/C=C/c4ccccc4)C=CC(=O)[C@]35C)[C@]12O
3 | 420 nM | 650 nM | 810 nM | 1390 nM | CC(=O)O[C@H]1C=C([C@H](C)[C@H]2CC(C)=C(C)C(=O)O2)[C@@]2(C)CC[C@H]3[C@@H](C[C@H]4O[C@]45[C@@H](OC(=O)/C=C/c4cccc(C(F)(F)F)c4)C=CC(=O)[C@]35C)[C@]12O
4 | 570 nM | 670 nM | 590 nM | 1210 nM | CCO/C=C/C(=O)O[C@H]1C=CC(=O)[C@]2(C)[C@H]3CC[C@]4(C)C([C@H](C)[C@H]5CC(C)=C(C)C(=O)O5)=C[C@H](OC(C)=O)[C@@]4(O)[C@@H]3C[C@H]3O[C@]132
5 | 260 nM | 280 nM | 460 nM | 750 nM | CC(=O)O[C@H]1C=C([C@H](C)[C@H]2CC(C)=C(C)C(=O)O2)[C@@]2(C)CC[C@H]3[C@@H](C[C@H]4O[C@]45[C@@H](OC(=O)C=C(C)C)C=CC(=O)[C@]35C)[C@]12O
6 | 1060 nM | 670 nM | 1010 nM | 2100 nM | CC(=O)O[C@H]1C=C([C@H](C)[C@H]2CC(C)=C(C)C(=O)O2)[C@@]2(C)CC[C@H]3[C@@H](C[C@H]4O[C@]45[C@@H](OC(=O)C4CCCN4C(=O)OC(C)(C)C)C=CC(=O)[C@]35C)[C@]12O (stereo partly drawn)
7 | 2910 nM | 3870 nM | 2390 nM | 4080 nM | CC(=O)O[C@H]1C=C([C@H](C)[C@H]2CC(C)=C(C)C(=O)O2)[C@@]2(C)CC[C@H]3[C@@H](C[C@H]4O[C@]45[C@@H](OC(=O)c4cccs4)C=CC(=O)[C@]35C)[C@]12O
8 | 1660 nM | 570 nM | 1080 nM | 4810 nM | CCC(=O)O[C@H]1C=CC(=O)[C@]2(C)[C@H]3CC[C@]4(C)C([C@H](C)[C@H]5CC(C)=C(C)C(=O)O5)=C[C@H](OC(C)=O)[C@@]4(O)[C@@H]3C[C@H]3O[C@]132
9 | 6050 nM | 3110 nM | 3500 nM | > 20000 nM | CC(=O)O[C@H]1C=C([C@H](C)[C@H]2CC(C)=C(C)C(=O)O2)[C@@]2(C)CC[C@H]3[C@@H](C[C@H]4O[C@]45C(=O)C=CC(=O)[C@]35C)[C@]12O
10 | 360 nM | 350 nM | 190 nM | 620 nM | CC(=O)O[C@H]1C=C([C@H](C)[C@H]2CC(C)=C(C)C(=O)O2)[C@@]2(C)CC[C@H]3[C@@H](C[C@H]4O[C@]45[C@@H](OC(=O)/C=C/C(=O)N(C(C)C)C(C)C)C=CC(=O)[C@]35C)[C@]12O
11 | 1060 nM | 670 nM | 1010 nM | 2100 nM | CC(=O)O[C@H]1C=C([C@H](C)[C@H]2CC(C)=C(C)C(=O)O2)[C@@]2(C)CC[C@H]3[C@@H](C[C@H]4O[C@]45[C@@H](OC(=O)N(C)C)C=CC(=O)[C@]35C)[C@]12O
12 | 370 nM | 460 nM | 430 nM | 760 nM | CC(=O)O[C@H]1C=C([C@H](C)[C@H]2CC(C)=C(C)C(=O)O2)[C@@]2(C)CC[C@H]3[C@@H](C[C@H]4O[C@]45[C@@H](OC(=O)/C=C/C(=O)N4CCOCC4)C=CC(=O)[C@]35C)[C@]12O
13 | 310 nM | 430 nM | 450 nM | 760 nM | CC(=O)O[C@H]1C=C([C@H](C)[C@H]2CC(C)=C(C)C(=O)O2)[C@@]2(C)CC[C@H]3[C@@H](C[C@H]4O[C@]45[C@@H](OC(=O)/C=C/c4ccco4)C=CC(=O)[C@]35C)[C@]12O
14 | 3010 nM | 1770 nM | 1060 nM | 6140 nM | CC(=O)O[C@H]1C=C([C@H](C)[C@H]2CC(C)=C(C)C(=O)O2)[C@@]2(C)CC[C@H]3[C@@H](C[C@H]4O[C@]45[C@@H](O[Si](C)(C)C(C)(C)C)C=CC(=O)[C@]35C)[C@]12O
15 | 520 nM | 330 nM | 780 nM | 1060 nM | CC(=O)O[C@H]1C=C([C@H](C)[C@H]2CC(C)=C(C)C(=O)O2)[C@@]2(C)CC[C@H]3[C@@H](C[C@H]4O[C@]45[C@@H](OC(=O)C(CC(C)C)NC(=O)OC(C)(C)C)C=CC(=O)[C@]35C)[C@]12O (stereo partly drawn)
16 | > 20000 nM | > 20000 nM | > 20000 nM | > 20000 nM | CC(=O)O[C@H]1C=C([C@H](C)[C@H]2CC(C)=C(C)C(=O)O2)[C@@]2(C)CC[C@H]3[C@@H](C[C@@H](O)[C@@]4(Cl)[C@@H](O)C=CC(=O)[C@]34C)[C@]12O
17 | 300 nM | 230 nM | 370 nM | 530 nM | C/C=C/C(=O)O[C@H]1C=CC(=O)[C@]2(C)[C@H]3CC[C@]4(C)C([C@H](C)[C@H]5CC(C)=C(C)C(=O)O5)=C[C@H](OC(C)=O)[C@@]4(O)[C@@H]3C[C@H]3O[C@]132
18 | 1570 nM | 600 nM | 800 nM | 3050 nM | CC(=O)O[C@H]1C=C([C@H](C)[C@H]2CC(C)=C(C)C(=O)O2)[C@@]2(C)CC[C@H]3[C@@H](C[C@H]4O[C@]45[C@@H](OC(=O)C(NC(=O)OC(C)(C)C)C(C)C)C=CC(=O)[C@]35C)[C@]12O (stereo partly drawn)
19 | 410 nM | 730 nM | 1380 nM | 4310 nM | CC(=O)O[C@H]1C=C([C@H](C)[C@H]2CC(C)=C(C)C(=O)O2)[C@@]2(C)CC[C@H]3[C@@H](C[C@H]4O[C@]45[C@@H](OC(=O)N4CCCCC4)C=CC(=O)[C@]35C)[C@]12O
20 | 310 nM | 250 nM | 300 nM | 450 nM | CCN(CC)C(=O)/C=C/C(=O)O[C@H]1C=CC(=O)[C@]2(C)[C@H]3CC[C@]4(C)C([C@H](C)[C@H]5CC(C)=C(C)C(=O)O5)=C[C@H](OC(C)=O)[C@@]4(O)[C@@H]3C[C@H]3O[C@]132
21 | > 20000 nM | > 20000 nM | > 20000 nM | > 20000 nM | CC(=O)O[C@H]1C=C([C@H](C)[C@H]2CC(C)=C(C)C(=O)O2)[C@@]2(C)CC[C@H]3[C@@H](C[C@H]4O[C@]45[C@@H](O)C(n4ccnc4)CC(=O)[C@]35C)[C@]12O (stereo partly drawn)

Row | SMILES | IC50 [1] | IC50 [2] | IC50 [3] | IC50 [4]
22 | CC(=O)O[C@H]1[C@@H]2O[C@]2([C@H](C)[C@H]2CC(C)=C(C)C(=O)O2)[C@@]2(C)CC[C@H]3[C@@H](C[C@H]4O[C@]45[C@@H](O)C=CC(=O)[C@]35C)[C@]12O | 4660 nM | 5040 nM | 4550 nM | 9360 nM
